Laboratory results from patent publication US10435389B2, “Octahydrocyclopenta[c]pyrrole allosteric inhibitors of SHP2” (Krouzon Pharmaceuticals, Inc., priority 2017, dated 2019).
Where a name gives a salt, the structure may show the parent alone.

Molecular target: T1, human recombinant SHP2 (Homo sapiens, UniProt Q06124)
T1 sequence (Q06124 1-593): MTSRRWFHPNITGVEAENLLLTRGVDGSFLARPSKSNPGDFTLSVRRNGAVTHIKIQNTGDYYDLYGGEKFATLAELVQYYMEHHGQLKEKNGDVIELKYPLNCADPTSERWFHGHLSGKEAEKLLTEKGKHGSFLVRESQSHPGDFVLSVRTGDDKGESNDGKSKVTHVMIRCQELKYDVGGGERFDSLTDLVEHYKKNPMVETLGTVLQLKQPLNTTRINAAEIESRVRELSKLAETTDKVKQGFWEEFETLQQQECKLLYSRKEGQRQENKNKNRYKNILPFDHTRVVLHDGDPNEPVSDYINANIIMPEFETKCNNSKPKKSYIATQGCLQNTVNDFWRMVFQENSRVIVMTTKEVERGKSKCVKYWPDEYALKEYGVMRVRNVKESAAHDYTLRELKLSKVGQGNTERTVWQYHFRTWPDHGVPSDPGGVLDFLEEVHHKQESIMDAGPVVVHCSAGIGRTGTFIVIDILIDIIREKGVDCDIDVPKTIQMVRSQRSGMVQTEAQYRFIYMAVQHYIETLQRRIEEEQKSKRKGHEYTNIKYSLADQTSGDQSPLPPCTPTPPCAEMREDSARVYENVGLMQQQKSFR
Assay: Protein Tyrosine Phosphatase (PTP) assay and IC50 measurements of inhibitors (DiFMUP fluorescence)
Type: biochemical
Settings: 100 ng/mL human recombinant SHP2, 0.5 μM activating peptide IRS1_pY1172(dPEG8)pY1222, substrate DiFMUP 200 μM, room temperature; read-out: IC50 (SHP2 inhibition)
Experimental: Example E: Protein Tyrosine Phosphatase (PTP) Assay and IC50 Measurements of Inhibitors
The phosphatase activity of SHP2 was monitored using the surrogate substrate DiFMUP in a fluorescence assay format. The phosphatase reactions were performed at room temperature in 96-well black polystyrene plate, flat bottom plate using a final reaction volume of 100 μL with the following assay buffer conditions: 60 mM HEPES, pH 7.2, 75 mM NaCl, 75 mM KCl, 1 mM EDTA, 0.05% Tween-20, 5 mM DTT.
To determine the IC50 of a compound, an eight-point dose response curve was generated in duplicate. Compounds were incubated at concentrations ranging from 0 μM to 10 μM with 100 ng/mL of human recombinant SHP2 and 0.5 μM of activating peptide IRS1_pY1172(dPEG8)pY1222 (sequence H2N-LN(pY)IDLDLV-(dPEG8)LST(pY)ASINFQK-amide) (SEQ ID NO 1). After 30 min incubation at room temperature (23-27° C.), the surrogate substrate DiFMUP (200 μM) was added to the reaction and incubated at room temperature for 30 min. The fluorescence signal was monitored using a microplate reader (Spectramax M5e, […]) using excitation and emission wavelengths of 340 and 450 nm, respectively. The inhibitor dose-response curves were analyzed using SoftmaxPro v5.2 software.

SMILES: Cc1cccc(-c2ncc(N3C[C@@H]4C[C@](C)(N)C[C@@H]4C3)nc2N)c1Cl [Example 1, (3aR,5r,6aS)-2-(6-amino-5-(2-chloro-3-methylphenyl)pyrazin-2-yl)-5-methyloctahydrocyclopenta[c]pyrrol-5-amine hydrochloride salt]
- IC50: < 9 µM

SMILES: C[C@]1(N)C[C@H]2CN(c3cnc(-c4cccc(Cl)c4Cl)c(N)n3)C[C@H]2C1 [Example 2, (3aR,5r,6aS)-2-(6-amino-5-(2,3-dichlorophenyl)pyrazin-2-yl)-5-methyloctahydrocyclopenta[c]pyrrol-5-amine]
- IC50: < 9 µM

SMILES: C[C@]1(N)C[C@H]2CN(c3cnc(-c4cccnc4Cl)c(N)n3)C[C@H]2C1 [Example 4, (3aR,5r,6aS)-2-(6-amino-5-(2-chloropyridin-3-yl)pyrazin-2-yl)-5-methyloctahydrocyclopenta[c]pyrrol-5-amine]
- IC50: < 9 µM

SMILES: C[C@]1(N)C[C@H]2CN(c3cnc(-c4cccc(Cl)c4F)c(N)n3)C[C@H]2C1 [Example 5, (3aR,5r,6aS)-2-(6-amino-5-(3-chloro-2-fluorophenyl)pyrazin-2-yl)-5-methyloctahydrocyclopenta[c]pyrrol-5-amine]
- IC50: < 9 µM

SMILES: C[C@@]1(N)C[C@H]2CN(c3cnc(-c4cccc(Cl)c4Cl)c(N)n3)C[C@H]2C1 [Example 7, (3aR,5s,6aS)-2-(6-amino-5-(2,3-dichlorophenyl)pyrazin-2-yl)-5-methyloctahydrocyclopenta[c]pyrrol-5-amine]
- IC50: < 9 µM

SMILES: Cc1cccc(-c2ncc(N3C[C@@H]4C[C@@](C)(N)C[C@@H]4C3)nc2N)c1Cl [Example 8, (3aR,5s,6aS)-2-(6-amino-5-(2-chloro-3-methylphenyl)pyrazin-2-yl)-5-methyloctahydrocyclopenta[c]pyrrol-5-amine]
- IC50: < 9 µM

SMILES: C[C@]1(N)C[C@H]2CN(c3ncc(-c4cccc(Cl)c4Cl)c(N)n3)C[C@H]2C1 [Example 11, (3aR,5r,6aS)-2-(4-amino-5-(2,3-dichlorophenyl)pyrimidin-2-yl)-5-methyloctahydrocyclopenta[c]pyrrol-5-amine]
- IC50: < 9 µM

SMILES: C[C@]1(N)C[C@H]2CN(c3ncc(-c4cccc(F)c4Cl)c(N)n3)C[C@H]2C1 [Example 12, (3aR,5r,6aS)-2-(4-amino-5-(2-chloro-3-fluorophenyl)pyrimidin-2-yl)-5-methyloctahydrocyclopenta[c]pyrrol-5-amine]
- IC50: < 9 µM

SMILES: C[C@]1(N)C[C@H]2CN(c3ncc(-c4cccnc4Cl)c(N)n3)C[C@H]2C1 [Example 13, (3aR,5r,6aS)-2-(4-amino-5-(2-chloropyridin-3-yl)pyrimidin-2-yl)-5-methyloctahydrocyclopenta[c]pyrrol-5-amine]
- IC50: > 10 µM
